What was measured:
α-amylase = target: T1, α-amylase (Aspergillus oryzae, UniProt P0C1B3); assay: biochemical; format: biochemical; settings: for IC50: α-amylase from Aspergillus oryzae, starch substrate, 37 °C, pH 6.9, mean ± standard error, read-out: α-Amylase Inhibitory Assay (IC50) (converted)
T1 construct: purchased Sigma-Aldrich
Description: The inhibitory effect of MA and MB on α-amylase was assessed by starch-iodine method with a modified model as follows: in each well of a microplate (U-shape, Greiner Bio-one, NC, USA), 20 µL of each either MA or MB were pre-incubated with 20 µL of 1 U/mL α-amylase solution (from Aspergillus oryzae, Sigma-Aldrich, St. Louis, MO, USA) at 37 °C for 10 min. The reaction was initiated by pipetting 30 µL of starch (0.5% in deionized water) (soluble ACS reagent, Sigma-Aldrich, St. Louis, MO, USA). After 6 min incubation at 37 °C, an aliquot of 20 µL of hydrochloric acid (1 M) were added to stop reaction, followed by 120 µL of 0.25 mM aqueous iodine solution. The absorbance at 565 nm was read by a microplate reader (Multiskan^TM Microplate Spectrophotometer, Thermo Fisher Scientific, Osaka, Japan). The inhibitory activity of MA and MB on α-amylase was performed as the inhibition percentage that was calculated by the following formula:% inhibition = (A − C)/(B − C) × 100(2) where A is the absorbance of reaction with presence of MA or MB, B is the absorbance of reaction without enzyme, C is the absorbance of reaction with absence of the momilactones. […] Dilutions of test samples and dissolutions of enzyme used 20 mM sodium phosphate buffer (pH 6.9 comprising of 6 mM sodium chloride). α-Amylase solution and soluble starch solution were prepared and used on the day of experiment.

α-glucosidase = target: T2, α-glucosidase (Saccharomyces cerevisiae, UniProt P53341); assay: α-Glucosidase inhibition assay (pNPG substrate); format: biochemical; settings: for suppressive property on α-glucosidase relative to acarbose (fold greater than acarbose): ratio of IC50 values versus acarbose; for IC50: α-glucosidase from Saccharomyces cerevisiae, pNPG substrate, 25 °C, pH 7, mean ± standard error, read-out: α-Glucosidase Inhibitory Assay (IC50) (converted)
T2 construct: purchased Sigma-Aldrich
Description: The anti-α-glucosidase activity of MA and MB was evaluated using a method as described previously with some alterations. In brief, an amount of 20 µL methanolic stock solution of MA and MB were pre-mixed with an equal volume of 0.1 M potassium phosphate buffer (pH 7) and 40 µL of α-glucosidase (from Saccharomyces cerevisiae, Sigma-Aldrich, St. Louis, MO, USA) enzyme solution (0.5 U/mL in 0.1 M potassium phosphate buffer, pH 7). After 6 min incubation at 25 °C, a 20 µL aliquot of 5 mM p-nitrophenyl-α-D-glucopyranoside (pNPG) substrate (in 0.1 M potassium phosphate buffer, pH 7) was added to each reaction and the mixture was incubated for another 8 min. Eventually, the reaction was terminated by adding 100 µL of 0.2 M Na2CO3, and absorbance was recorded at 405 nm. […] IC50 value was obtained by the same way as above.

[1] = ratio of IC50 values, MB versus MA

T2 sequence (P53341 whole entry): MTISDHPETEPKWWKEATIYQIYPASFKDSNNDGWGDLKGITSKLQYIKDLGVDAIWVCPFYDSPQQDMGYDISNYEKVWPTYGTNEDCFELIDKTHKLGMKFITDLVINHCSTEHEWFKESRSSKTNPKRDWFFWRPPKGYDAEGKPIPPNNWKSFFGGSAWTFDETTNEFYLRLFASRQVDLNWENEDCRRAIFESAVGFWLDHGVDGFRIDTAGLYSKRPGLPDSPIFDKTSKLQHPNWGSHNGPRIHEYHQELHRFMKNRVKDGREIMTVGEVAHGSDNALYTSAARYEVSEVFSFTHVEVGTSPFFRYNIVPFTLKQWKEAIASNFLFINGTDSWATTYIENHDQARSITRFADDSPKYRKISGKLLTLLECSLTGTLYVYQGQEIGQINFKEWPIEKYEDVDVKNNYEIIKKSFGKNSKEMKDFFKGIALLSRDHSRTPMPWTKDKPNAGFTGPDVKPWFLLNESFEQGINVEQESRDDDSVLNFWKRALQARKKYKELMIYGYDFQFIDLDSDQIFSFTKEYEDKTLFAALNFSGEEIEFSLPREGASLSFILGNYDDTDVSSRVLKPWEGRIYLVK

Row | Compound | inhibitory activity on α-amylase of MB relative to MA (fold stronger) (α-amylase; [1]) [fold] | IC50 (α-amylase) [µM] | suppressive property on α-glucosidase relative to acarbose (fold greater than acarbose) (α-glucosidase) [fold] | inhibitory activity on α-glucosidase of MB relative to MA (fold stronger) (α-glucosidase; [1]) [fold] | IC50 (α-glucosidase) [µM]
1 | C=CC1(C)CCC2C(=CC3OC(=O)C4(C)C3C23CCC4(O)OC3)C1 (centres unmarked) [MB, momilactone B] | 1.8 | 444 | 4.2 | 1.6 | 1850
2 | C=C[C@]1(C)CC[C@H]2C(=C[C@H]3OC(=O)[C@@]4(C)C(=O)CC[C@@]2(C)[C@@H]34)C1 [MA, momilactone A] |  | 848 | 2.5 |  | 3150

Reference: PMC6385104, “Momilactones A and B Are α-Amylase and α-Glucosidase Inhibitors” (Molecules, 2019)
